Laboratory results published in patent publication US4571396A, “Antibacterial agents” (Warner-Lambert Company, priority 1985, dated 1986).
Values after ≈ are worked out from the molar mass of the structure shown. Structures can show the parent of a compound that is named as a salt. Where two headings read alike, the source gives them in different places.

What was measured:
Test in all cases: In vitro antibacterial activity, microtitration dilution method (MIC)
Assay type in all cases: cell-based
[1] = system: Pseudomonas aeruginosa UI-18
Description: (§1) Agents & Chemoth., 6, 124 (1974), which is incorporated herein by reference.

[2] = system: Staphylococcus aureus UC-76
Description: as §1

Escherichia coli Vogel = settings: read-out: Minimal Inhibitory Concentration MIC
Description: as §1

Proteus rettgeri M 1771 = settings: Providencia rettgeri
Description: as §1

[3] = system: Enterobacter cloacae MA 2646
Description: as §1

[4] = system: Streptococcus faecalis MGH-2; settings: Enterococcus faecalis
Description: as §1

[5] = system: Streptococcus pneumoniae SV-1
Description: as §1

[6] = system: Klebsiella pneumoniae MGH-2
Description: as §1

[7] = system: Streptococcus pyogenes C-203
Description: as §1

[8] = system: Staphylococcus aureus H 228; settings: H228, read-out: Minimal Inhibitory Concentration MIC
Description: The compounds of the invention display antibacterial activity when tested by the microtitration dilution method as described in Heifetz, et al, Antimicr. Agents & Chemoth., 6, 124 (1974), which is incorporated herein by reference.
By use of the above reference method, the followed minimum inhibitory concentration value (MICs in μg/ml) shown in the table were obtained for representative compounds of the invention.

[9] = UI18, Pseudomonas aeruginosa UI-18, in vitro, read-out: Minimal Inhibitory Concentration MIC
[10] = UC76, Staphylococcus aureus UC-76, in vitro, read-out: Minimal Inhibitory Concentration MIC
[11] = M1771, Proteus rettgeri M 1771, in vitro, read-out: Minimal Inhibitory Concentration MIC
[12] = MA2646, Enterobacter cloacae MA 2646, in vitro, read-out: Minimal Inhibitory Concentration MIC
[13] = MGH2, Streptococcus faecalis MGH-2, in vitro, read-out: Minimal Inhibitory Concentration MIC
[14] = SV1, Streptococcus pneumoniae SV-1, in vitro, read-out: Minimal Inhibitory Concentration MIC
[15] = MGH2, Klebsiella pneumoniae MGH-2, in vitro, read-out: Minimal Inhibitory Concentration MIC
[16] = C203, Streptococcus pyogenes C-203, in vitro, read-out: Minimal Inhibitory Concentration MIC

## CN1CC2CC1CN2c1c(F)cc2c(=O)c(C(=O)O)cn(C3CC3)c2c1F.Cl (stereo not drawn) [Ex. 10c, 1-cyclopropyl-6,8-difluoro-1,4-dihydro-7-(5-methyl-2,5-diazabicyclo[2.2.1]hept-2-yl)-4-oxo-3-quinolinecarboxylic acid monohydrochloride]
[1]; [9]
  MIC: 0.4 µg/mL
[2]; [10]
  MIC: 0.025 µg/mL
Escherichia coli Vogel
  MIC: 0.05 µg/mL
Proteus rettgeri M 1771; [11]
  MIC: 0.2 µg/mL
[3]; [12]
  MIC: 0.1 µg/mL
[4]; [13]
  MIC: 0.4 µg/mL
[5]; [14]
  MIC: 0.4 µg/mL
[6]; [15]
  MIC: 0.05 µg/mL
[7]; [16]
  MIC: 0.4 µg/mL
[8]
  MIC: 0.1 µg/mL

## O=C(O)c1cn(C2CC2)c2c(F)c(N3CC4CC3CN4)c(F)cc2c1=O (stereo not drawn) [Ex. 7d, 1-cyclopropyl-7-[2,5-diazabicyclo(2.2.1)hept-2-yl]-6,8-difluoro-1,4-dihydro-4-oxo-3-quinolinecarboxylic acid]
[1]; [9]
  MIC: 0.2 µg/mL (≈ 0.553 µM)
[2]; [10]
  MIC: 0.2 µg/mL (≈ 0.553 µM)
Escherichia coli Vogel
  MIC: 0.05 µg/mL (≈ 0.138 µM)
Proteus rettgeri M 1771; M1771, read-out: Minimal Inhibitory Concentration MIC
  MIC: 0.1 µg/mL (≈ 0.277 µM)
[3]; [12]
  MIC: 0.1 µg/mL (≈ 0.277 µM)
[4]; [13]
  MIC: 0.8 µg/mL (≈ 2.21 µM)
[5]; [14]
  MIC: 1.6 µg/mL (≈ 4.43 µM)
[6]; [15]
  MIC: 0.1 µg/mL (≈ 0.277 µM)
[7]; [16]
  MIC: 0.2 µg/mL (≈ 0.553 µM)
[8]
  MIC: 0.8 µg/mL (≈ 2.21 µM)

## O=C(O)c1cn(C2CC2)c2c(F)c(N3CCN4CCC3C4)c(F)cc2c1=O (stereo not drawn) [Ex. 17, 1-Cyclopropyl-7-(1,4-diazabicyclo[3.2.1]oct-4-yl)-6,8-difluoro-1,4-dihydro-4-oxo-3-quinolinecarboxylic acid]
[1]; [9]
  MIC: 0.4 µg/mL (≈ 1.07 µM)
[2]; [10]
  MIC: 0.025 µg/mL (≈ 0.0666 µM)
Escherichia coli Vogel
  MIC: 0.05 µg/mL (≈ 0.133 µM)
Proteus rettgeri M 1771; [11]
  MIC: 0.2 µg/mL (≈ 0.533 µM)
[3]; [12]
  MIC: 0.025 µg/mL (≈ 0.0666 µM)
[4]; [13]
  MIC: 0.2 µg/mL (≈ 0.533 µM)
[5]; [14]
  MIC: 0.4 µg/mL (≈ 1.07 µM)
[6]; [15]
  MIC: 0.05 µg/mL (≈ 0.133 µM)
[7]; [16]
  MIC: 0.1 µg/mL (≈ 0.266 µM)
[8]
  MIC: 0.4 µg/mL (≈ 1.07 µM)

## O=C(O)c1cn(C2CC2)c2nc(N3CCN4CCC3C4)c(F)cc2c1=O (stereo not drawn) [Ex. 14]
[1]; [9]
  MIC: 0.8 µg/mL (≈ 2.23 µM)
[2]; [10]
  MIC: 0.1 µg/mL (≈ 0.279 µM)
Escherichia coli Vogel
  MIC: 0.05 µg/mL (≈ 0.14 µM)
Proteus rettgeri M 1771; [11]
  MIC: 0.4 µg/mL (≈ 1.12 µM)
[3]; [12]
  MIC: 0.1 µg/mL (≈ 0.279 µM)
[4]; [13]
  MIC: 0.8 µg/mL (≈ 2.23 µM)
[5]; [14]
  MIC: 0.8 µg/mL (≈ 2.23 µM)
[6]; Klebsiella pneumoniae, MGH2, read-out: Minimal Inhibitory Concentration MIC
  MIC: 0.1 µg/mL (≈ 0.279 µM)
[7]; [16]
  MIC: 0.4 µg/mL (≈ 1.12 µM)
[8]
  MIC: 0.8 µg/mL (≈ 2.23 µM)

## CN1CC2CC1CN2c1nc2c(cc1F)c(=O)c(C(=O)O)cn2C1CC1 (stereo not drawn) [Ex. 10b, 1-cyclopropyl-6-difluoro-1,4-dihydro-7-(5-methyl-2,5-diazabicyclo[2.2.1]hept-2-yl)-4-oxo-1,8-naphthyridine-3-carboxylic acid monohydrochloride]
[1]; Pseudomonas aeruginosa, UI18, read-out: Minimal Inhibitory Concentration MIC
  MIC: 0.4 µg/mL
[2]; [10]
  MIC: 0.1 µg/mL
Escherichia coli Vogel
  MIC: 0.05 µg/mL
Proteus rettgeri M 1771; [11]
  MIC: 0.4 µg/mL
[4]; MGH2, read-out: Minimal Inhibitory Concentration MIC
  MIC: 0.8 µg/mL
[5]; [14]
  MIC: 0.4 µg/mL
[6]; [15]
  MIC: 0.05 µg/mL
[7]; [16]
  MIC: 0.4 µg/mL
[8]
  MIC: 0.4 µg/mL

## Cl.O=C(O)c1cn(C2CC2)c2nc(N3CC4CC3CN4)c(F)cc2c1=O (stereo not drawn) [Ex. 7c, 1-cyclopropyl-7-[2,5-diazabicyclo(2.2.1)hept-2-yl]-6-fluoro-1,4-dihydro-4-oxo-1,8-naphthyridine-3-carboxylic acid, monohydrochloride]
[2]; [10]
  MIC: 0.2 µg/mL
Escherichia coli Vogel
  MIC: 0.1 µg/mL
Proteus rettgeri M 1771; [11]
  MIC: 0.2 µg/mL
[3]; [12]
  MIC: 0.05 µg/mL
[4]; [13]
  MIC: 0.8 µg/mL
[5]; [14]
  MIC: 0.8 µg/mL
[6]; [15]
  MIC: 0.05 µg/mL
[7]; [16]
  MIC: 0.2 µg/mL
[8]
  MIC: 0.8 µg/mL

## O=C(O)c1cn(C2CC2)c2nc(N3CC4CCC3CN4)c(F)cc2c1=O (stereo not drawn) [Ex. 6a, 7-(2,5-diazabicyclo[2.2.2]oct-2-yl)-1-cyclopropyl-6-fluoro-1,4-dihydro-4-oxo-1,8-naphthyridine-3-carboxylic acid]
[1]; [9]
  MIC: 0.2 µg/mL (≈ 0.558 µM)
[2]; [10]
  MIC: 0.006 µg/mL (≈ 0.0167 µM)
Escherichia coli Vogel
  MIC: 0.1 µg/mL (≈ 0.279 µM)
Proteus rettgeri M 1771; [11]
  MIC: 0.4 µg/mL (≈ 1.12 µM)
[3]; [12]
  MIC: 0.1 µg/mL (≈ 0.279 µM)
[4]; [13]
  MIC: 0.4 µg/mL (≈ 1.12 µM)
[5]; [14]
  MIC: 0.4 µg/mL (≈ 1.12 µM)
[6]; [15]
  MIC: 0.05 µg/mL (≈ 0.14 µM)
[7]; [16]
  MIC: 0.4 µg/mL (≈ 1.12 µM)
[8]
  MIC: 0.05 µg/mL (≈ 0.14 µM)

## O=C(O)c1cn(C2CC2)c2c(F)c(N3CC4CCC3CN4)c(F)cc2c1=O (stereo not drawn) [Ex. 3, 7-(2,5-Diazabicyclo[2.2.2]oct-2-yl)-1-cyclopropyl-6,8-difluoro-1,4-dihydro-4-oxo-3-quinolinecarboxylic acid]
[1]; [9]
  MIC: 0.8 µg/mL (≈ 2.13 µM)
[2]; [10]
  MIC: 0.025 µg/mL (≈ 0.0666 µM)
Escherichia coli Vogel
  MIC: 0.05 µg/mL (≈ 0.133 µM)
Proteus rettgeri M 1771; [11]
  MIC: 0.8 µg/mL (≈ 2.13 µM)
[3]; Enterobacter cloacae, MA2646, read-out: Minimal Inhibitory Concentration MIC
  MIC: 0.05 µg/mL (≈ 0.133 µM)
[4]; [13]
  MIC: 1.6 µg/mL (≈ 4.26 µM)
[5]; Streptococcus pneumoniae, SV1, read-out: Minimal Inhibitory Concentration MIC
  MIC: 1.6 µg/mL (≈ 4.26 µM)
[6]; [15]
  MIC: 0.1 µg/mL (≈ 0.266 µM)
[7]; Streptococcus pyogenes, C203, read-out: Minimal Inhibitory Concentration MIC
  MIC: 0.8 µg/mL (≈ 2.13 µM)
[8]
  MIC: 0.4 µg/mL (≈ 1.07 µM)

## CCn1cc(C(=O)O)c(=O)c2cc(F)c(N3[C@@H]4CC[C@H]3C[C@H](N)C4)nc21 [Ex. 20, 7-(3-(Exo-amino)-8-azabicyclo[3.2.1]oct-8-yl]-1-ethyl-6-fluoro-1,4-dihydro-4-oxo-1,8-naphthyridine-3-carboxylic acid, hydrochloride]
[1]; [9]
  MIC: 0.8 µg/mL
[2]; Staphylococcus aureus, UC76, read-out: Minimal Inhibitory Concentration MIC
  MIC: 0.2 µg/mL
Escherichia coli Vogel
  MIC: 0.4 µg/mL
Proteus rettgeri M 1771; [11]
  MIC: 0.8 µg/mL
[3]; [12]
  MIC: 0.8 µg/mL
[4]; [13]
  MIC: 0.8 µg/mL
[5]; [14]
  MIC: 0.4 µg/mL
[6]; [15]
  MIC: 0.4 µg/mL
[7]; [16]
  MIC: 0.4 µg/mL
[8]
  MIC: 0.4 µg/mL

## CCn1cc(C(=O)O)c(=O)c2cc(F)c(N3CC4CCC3CN4C)nc21.Cl (stereo not drawn) [Ex. 10a, 1-Ethyl-6-fluoro-7-(5-methyl-2,5-diazabicyclo[2.2.2]oct-2-yl)-1,4-dihydro-4-oxo-1,8-naphthyridine-3-carboxylic acid hydrochloride]
[1]; [9]
  MIC: 1.6 µg/mL
[2]; [10]
  MIC: 0.2 µg/mL
Escherichia coli Vogel
  MIC: 0.4 µg/mL
Proteus rettgeri M 1771; [11]
  MIC: 1.6 µg/mL
[3]; [12]
  MIC: < 0.1 µg/mL
[4]; [13]
  MIC: 1.6 µg/mL
[5]; [14]
  MIC: 1.6 µg/mL
[6]; [15]
  MIC: 0.4 µg/mL
[7]; [16]
  MIC: 1.6 µg/mL
[8]
  MIC: 0.4 µg/mL

## CCn1cc(C(=O)O)c(=O)c2cc(F)c(N3CCN4CCC3C4)c(F)c21 (stereo not drawn) [Ex. 16, 7-(1,4-Diazabicyclo[3.2.1]oct-4-yl)-1-ethyl-6,8-difluoro-1,4-dihydro-4-oxo-3-quinolinecarboxylic acid]
[1]; [9]
  MIC: 0.4 µg/mL (≈ 1.1 µM)
[2]; [10]
  MIC: 0.1 µg/mL (≈ 0.275 µM)
Proteus rettgeri M 1771; [11]
  MIC: 0.2 µg/mL (≈ 0.55 µM)
[3]; [12]
  MIC: 0.5 µg/mL (≈ 1.38 µM)
[4]; [13]
  MIC: 0.8 µg/mL (≈ 2.2 µM)
[5]; [14]
  MIC: 0.8 µg/mL (≈ 2.2 µM)
[6]; [15]
  MIC: 0.1 µg/mL (≈ 0.275 µM)
[7]; [16]
  MIC: 0.4 µg/mL (≈ 1.1 µM)
[8]
  MIC: 0.4 µg/mL (≈ 1.1 µM)

## CCn1cc(C(=O)O)c(=O)c2cc(F)c(N3CC4CCC3CN4)c(F)c21 (stereo not drawn) [Ex. 2, 7-(2,5-Diazabicyclo[2.2.2]oct-2-yl)-1-ethyl-6,8-difluoro-1,4-dihydro-4-oxo-3-quinolinecarboxylic acid]
[1]; [9]
  MIC: 0.4 µg/mL (≈ 1.1 µM)
[2]; [10]
  MIC: ≤ 0.1 µg/mL
Escherichia coli Vogel
  MIC: 0.1 µg/mL (≈ 0.275 µM)
Proteus rettgeri M 1771; [11]
  MIC: 0.8 µg/mL (≈ 2.2 µM)
[3]; [12]
  MIC: 0.2 µg/mL (≈ 0.55 µM)
[4]; [13]
  MIC: 1.6 µg/mL (≈ 4.4 µM)
[5]; [14]
  MIC: 0.8 µg/mL (≈ 2.2 µM)
[6]; [15]
  MIC: 0.4 µg/mL (≈ 1.1 µM)
[7]; [16]
  MIC: 0.4 µg/mL (≈ 1.1 µM)
[8]
  MIC: 0.4 µg/mL (≈ 1.1 µM)
